Data reported in ChEMBL document CHEMBL3045767, “Synthesis of novel 2-[4-(4-substitutedbenzamido/phenylacetamido)phenyl]benzothiazoles as antimicrobial agents” (2012).
In brackets after ≈: the same amount, converted by molar mass.

Experiments:
Assay type in all cases: functional
Bacillus subtilis [1] = assay: Antibacterial activity against Bacillus subtilis ATCC 6633 after 24 hr by CLSI broth microdilution method
Pseudomonas aeruginosa [2] = assay: Antibacterial activity against Pseudomonas aeruginosa ATCC […] after 24 hr by CLSI broth microdilution method
Klebsiella pneumoniae [3] = assay: Antibacterial activity against Klebsiella pneumoniae RSKK 574 after 24 hr by CLSI broth microdilution method
Candida albicans [4] = assay: Antifungal activity against Candida albicans ATCC 10231 after 48 hr by CLSI broth microdilution method; details: ATCC 10231, 48 h
Escherichia coli [5] = assay: Antibacterial activity against Escherichia coli ATCC 25922 after 24 hr by CLSI broth microdilution method
Escherichia coli [6] = assay: Antibacterial activity against Escherichia coli producing extended spectrum beta lactamase enzyme after 24 hr by CLSI broth microdilution method
Bacillus subtilis [7] = assay: Antibacterial activity against ceftriaxon-resistant Bacillus subtilis after 24 hr by CLSI broth microdilution method
Klebsiella pneumoniae [8] = assay: Antibacterial activity against Klebsiella pneumoniae producing extended spectrum beta lactamase enzyme after 24 hr by CLSI broth microdilution method
Staphylococcus aureus [9] = assay: Antibacterial activity against Staphylococcus aureus ATCC 25923 after 24 hr by CLSI broth microdilution method
Staphylococcus aureus [10] = assay: Antibacterial activity against methicillin-resistant Staphylococcus aureus after 24 hr by CLSI broth microdilution method
Pseudomonas aeruginosa [11] = assay: Antibacterial activity against gentamicin-resistant Pseudomonas aeruginosa after 24 hr by CLSI broth microdilution method
Pseudomonas aeruginosa [12] = assay: Ratio of ofloxacin MIC to compound MIC for gentamicin-resistant Pseudomonas aeruginosa
Pseudomonas aeruginosa [13] = assay: Ratio of gentamycin sulfate MIC to compound MIC for gentamicin-resistant Pseudomonas aeruginosa
Candida albicans [14] = assay: Antifungal activity against Candida albicans
Staphylococcus aureus [15] = assay: Antibacterial activity against Staphylococcus aureus

`O=C(Nc1ccc(-c2nc3ccccc3s2)cc1)c1ccc(Cl)cc1` gave an MIC (Bacillus subtilis [1]; ATCC 6633, 24 h) of 50 µg/mL (≈ 137 µM), an MIC (Pseudomonas aeruginosa [2]; ATCC 25853, 24 h) of 25 µg/mL (≈ 68.5 µM) and an MIC (Klebsiella pneumoniae [3]; RSKK 574, 24 h) of 50 µg/mL (≈ 137 µM). The MIC (Candida albicans [4]) was 25 µg/mL (≈ 68.5 µM), the MIC (Escherichia coli [5]; ATCC 25922, 24 h) was 50 µg/mL (≈ 137 µM) and the MIC (Escherichia coli [6]) was 50 µg/mL (≈ 137 µM). It also gave an MIC (Bacillus subtilis [7]) of 50 µg/mL (≈ 137 µM), an MIC (Klebsiella pneumoniae [8]) of 25 µg/mL (≈ 68.5 µM) and an MIC (Staphylococcus aureus [9]; ATCC 25923, 24 h) of 50 µg/mL (≈ 137 µM). It also gave an MIC (Staphylococcus aureus [10]) of 12.5 µg/mL (≈ 34.3 µM) and an MIC (Pseudomonas aeruginosa [11]) of 25 µg/mL (≈ 68.5 µM).
`CO[C@H]1/C=C/O[C@@]2(C)Oc3c(C)c(O)c4c(O)c(c(/C=N/N5CCN(C)CC5)c(O)c4c3C2=O)NC(=O)/C(C)=C\C=C\[C@H](C)[C@H](O)[C@@H](C)[C@@H](O)[C@@H](C)[C@H](OC(C)=O)[C@@H]1C` [RIFAMPIN] gave an MIC (Bacillus subtilis [1]; ATCC 6633, 24 h) of 0.19 µg/mL (≈ 0.231 µM), an MIC (Bacillus subtilis [7]) of 3.12 µg/mL (≈ 3.8 µM) and an MIC (Staphylococcus aureus [9]; ATCC 25923, 24 h) of 0.0225 µg/mL (≈ 0.0273 µM). For the same compound, the MIC (Staphylococcus aureus [10]) was 1.56 µg/mL (≈ 1.9 µM).
In the case of `OC(Cn1cncn1)(Cn1cncn1)c1ccc(F)cc1F` [FLUCONAZOLE], the MIC (Candida albicans [4]) is reported as 0.78 µg/mL (≈ 2.55 µM).
For `COc1ccc(CC(=O)Nc2ccc(-c3nc4ccccc4s3)cc2)cc1`, the Ratio (Pseudomonas aeruginosa [12]) was 3, the MIC (Bacillus subtilis [1]; ATCC 6633, 24 h) was 12.5 µg/mL (≈ 33.4 µM) and the MIC (Pseudomonas aeruginosa [2]; ATCC 25853, 24 h) was 25 µg/mL (≈ 66.8 µM). For the same compound, the MIC (Klebsiella pneumoniae [3]; RSKK 574, 24 h) was 12.5 µg/mL (≈ 33.4 µM), the MIC (Candida albicans [4]) was 12.5 µg/mL (≈ 33.4 µM) and the MIC (Escherichia coli [5]; ATCC 25922, 24 h) was 12.5 µg/mL (≈ 33.4 µM). It also gave an MIC (Escherichia coli [6]) of 25 µg/mL (≈ 66.8 µM), an MIC (Bacillus subtilis [7]) of 50 µg/mL (≈ 134 µM) and an MIC (Klebsiella pneumoniae [8]) of 50 µg/mL (≈ 134 µM). The MIC (Staphylococcus aureus [9]; ATCC 25923, 24 h) was 50 µg/mL (≈ 134 µM), the Ratio (Pseudomonas aeruginosa [13]) was 3 and the MIC (Staphylococcus aureus [10]) was 12.5 µg/mL (≈ 33.4 µM). The MIC (Pseudomonas aeruginosa [11]) was 6.25 µg/mL (≈ 16.7 µM).
With `O=C(Cc1ccc(F)cc1)Nc1ccc(-c2nc3ccccc3s2)cc1` the MIC (Bacillus subtilis [1]; ATCC 6633, 24 h) was 50 µg/mL (≈ 138 µM), the MIC (Pseudomonas aeruginosa [2]; ATCC 25853, 24 h) was 25 µg/mL (≈ 69 µM) and the MIC (Klebsiella pneumoniae [3]; RSKK 574, 24 h) was 50 µg/mL (≈ 138 µM). For the same compound, the MIC (Candida albicans [4]) was 25 µg/mL (≈ 69 µM), the MIC (Escherichia coli [5]; ATCC 25922, 24 h) was 25 µg/mL (≈ 69 µM) and the MIC (Escherichia coli [6]) was 50 µg/mL (≈ 138 µM). For the same compound, the MIC (Bacillus subtilis [7]) was 25 µg/mL (≈ 69 µM), the MIC (Klebsiella pneumoniae [8]) was 50 µg/mL (≈ 138 µM) and the MIC (Staphylococcus aureus [9]; ATCC 25923, 24 h) was 100 µg/mL (≈ 276 µM). For the same compound, the MIC (Staphylococcus aureus [10]) was 50 µg/mL (≈ 138 µM) and the MIC (Pseudomonas aeruginosa [11]) was 25 µg/mL (≈ 69 µM).
For `O=C(Cc1ccc(Cl)cc1)Nc1ccc(-c2nc3ccccc3s2)cc1`, the MIC (Bacillus subtilis [1]; ATCC 6633, 24 h) was 50 µg/mL (≈ 132 µM), the MIC (Pseudomonas aeruginosa [2]; ATCC 25853, 24 h) was 25 µg/mL (≈ 66 µM) and the MIC (Klebsiella pneumoniae [3]; RSKK 574, 24 h) was 50 µg/mL (≈ 132 µM). It also gave an MIC (Candida albicans [4]) of 25 µg/mL (≈ 66 µM), an MIC (Escherichia coli [5]; ATCC 25922, 24 h) of 50 µg/mL (≈ 132 µM) and an MIC (Escherichia coli [6]) of 50 µg/mL (≈ 132 µM). The MIC (Bacillus subtilis [7]) was 50 µg/mL (≈ 132 µM), the MIC (Klebsiella pneumoniae [8]) was 50 µg/mL (≈ 132 µM) and the MIC (Staphylococcus aureus [9]; ATCC 25923, 24 h) was 50 µg/mL (≈ 132 µM). For the same compound, the MIC (Staphylococcus aureus [10]) was 50 µg/mL (≈ 132 µM) and the MIC (Pseudomonas aeruginosa [11]) was 25 µg/mL (≈ 66 µM).
`O=C(Nc1ccc(-c2nc3ccccc3s2)cc1)c1ccc([N+](=O)[O-])cc1` was tested, and the MIC (Bacillus subtilis [1]; ATCC 6633, 24 h) was 50 µg/mL (≈ 133 µM), the MIC (Pseudomonas aeruginosa [2]; ATCC 25853, 24 h) was 25 µg/mL (≈ 66.6 µM) and the MIC (Klebsiella pneumoniae [3]; RSKK 574, 24 h) was 50 µg/mL (≈ 133 µM). The MIC (Candida albicans [4]) was 12.5 µg/mL (≈ 33.3 µM), the MIC (Escherichia coli [5]; ATCC 25922, 24 h) was 25 µg/mL (≈ 66.6 µM) and the MIC (Escherichia coli [6]) was 50 µg/mL (≈ 133 µM). For the same compound, the MIC (Bacillus subtilis [7]) was 50 µg/mL (≈ 133 µM), the MIC (Klebsiella pneumoniae [8]) was 50 µg/mL (≈ 133 µM) and the MIC (Staphylococcus aureus [9]; ATCC 25923, 24 h) was 50 µg/mL (≈ 133 µM). The MIC (Staphylococcus aureus [10]) was 12.5 µg/mL (≈ 33.3 µM) and the MIC (Pseudomonas aeruginosa [11]) was 25 µg/mL (≈ 66.6 µM).
Compound `c1ccc(SCc2nc3ccccc3s2)cc1` [2-(PHENYLTHIOMETHYL)BENZO[D]THIAZOLE] has an MIC (Candida albicans [14]) of 3.12 µg/mL (≈ 12.1 µM).
With `c1ccc(OCc2nc3ccccc3s2)cc1` [2-(PHENOXYMETHYL)BENZOTHIAZOLE] the MIC (Candida albicans [14]) was 3.12 µg/mL (≈ 12.9 µM) and the MIC (Staphylococcus aureus [15]) was 3.12 µg/mL (≈ 12.9 µM).
With GENTAMICIN SULFATE the MIC (Bacillus subtilis [1]) was 0.39 µg/mL, the MIC (Pseudomonas aeruginosa [2]) was 1.56 µg/mL and the MIC (Klebsiella pneumoniae [3]) was 0.39 µg/mL. The MIC (Escherichia coli [5]) was 0.78 µg/mL, the MIC (Escherichia coli [6]) was 12.5 µg/mL and the MIC (Bacillus subtilis [7]) was 0.19 µg/mL. It also gave an MIC (Klebsiella pneumoniae [8]) of 6.25 µg/mL, an MIC (Staphylococcus aureus [9]) of 0.78 µg/mL and an MIC (Staphylococcus aureus [10]) of 6.25 µg/mL. It also gave an MIC (Pseudomonas aeruginosa [11]) of 50 µg/mL.
`Cc1ccc(CC(=O)Nc2ccc(-c3nc4ccccc4s3)cc2)cc1` was tested, and the MIC (Bacillus subtilis [1]; ATCC 6633, 24 h) was 50 µg/mL (≈ 139 µM), the MIC (Pseudomonas aeruginosa [2]; ATCC 25853, 24 h) was 25 µg/mL (≈ 69.7 µM) and the MIC (Klebsiella pneumoniae [3]; RSKK 574, 24 h) was 25 µg/mL (≈ 69.7 µM). The MIC (Candida albicans [4]) was 25 µg/mL (≈ 69.7 µM), the MIC (Escherichia coli [5]; ATCC 25922, 24 h) was 50 µg/mL (≈ 139 µM) and the MIC (Escherichia coli [6]) was 50 µg/mL (≈ 139 µM). For the same compound, the MIC (Bacillus subtilis [7]) was 50 µg/mL (≈ 139 µM), the MIC (Klebsiella pneumoniae [8]) was 50 µg/mL (≈ 139 µM) and the MIC (Staphylococcus aureus [9]; ATCC 25923, 24 h) was 50 µg/mL (≈ 139 µM). It also gave an MIC (Staphylococcus aureus [10]) of 25 µg/mL (≈ 69.7 µM) and an MIC (Pseudomonas aeruginosa [11]) of 25 µg/mL (≈ 69.7 µM).
